In ChEMBL document CHEMBL5356942, “MEK inhibitors in cancer treatment: structural insights, regulation, recent advances and future perspectives” (RSC Med Chem, 2023):

Assays:
[1] = Cytotoxicity against human QSG7701 cells assessed as inhibition of cell growth incubated for 48 hrs by MTT assay; format: functional, cell-based; conditions: QSG7701, 48 h
Hep 3B2 = test: Cytotoxicity against human Hep3B cells assessed as reduction in cell viability incubated for 48 hrs by MTT assay; format: functional, cell-based
SMMC-7721 [2] = test: Cytotoxicity against human SMMC-7721 cells assessed as reduction in cell growth incubated for 48 hrs by MTT assay; format: functional, cell-based; conditions: SMMC-7721, 48 h
[3] = Oral bioavailability in ICR mouse at 3 mg/kg measured after 24 hrs by LC-MS/MS analysis; format: ADME, organism-based; conditions: in vivo
[4] = AUC (0 to t) in ICR mouse at 3 mg/kg, po administered via gavage measured after 24 hrs by LC-MS/MS analysis; format: ADME, organism-based; set-up: time 24 hrs, dose 3 mg/kg, route po; conditions: in vivo
RD = test: Cytotoxicity against human RD cells assessed as reduction in cell viability incubated for 72 hrs by MTT assay; format: functional
Enterovirus A71 [5] = test: Antiviral activity against human EV71 infected in HEK293 cells assessed as reduction in viral replication at MOI of 1 incubated for 48 hrs by luciferase assay; format: functional, organism-based; conditions: Enterovirus A, HEK293, 48 h
HEK293 = test: Cytotoxicity against HEK293 cells assessed as reduction in cell viability measured after 66 hrs by MTT assay; format: functional; conditions: Homo sapiens
Enterovirus A71 [6] = test: Antiviral activity against human Enterovirus 71 BrCr infected in human RD cells assessed as reduction of virus induced cytopathic effect incubated for 48 hrs by MTS assay; format: functional, organism-based; conditions: Enterovirus A
[7] = Therapeutic index, ratio of CC50 for HEK293 cells to EC50 for antiviral activity against human EV71 infected in HEK293 cells; format: functional
[8] = Therapeutic index, ratio of CC50 for RD cells to EC50 for antiviral activity against human EV71 infected in RD cells; format: functional
A-375 = test: Antiproliferative activity against human A375 cells assessed as reduction in cell growth incubated for 24 hrs by MTT assay; format: functional, cell-based; conditions: A-375, 24 h
A-431 = test: Antiproliferative activity against human A-431 cells assessed as reduction in cell proliferation incubated for 24 hrs by MTT assay; format: functional, cell-based; conditions: A-431, 24 h
Calu-6 = test: Antiproliferative activity against human Calu-6 cells assessed as reduction in cell growth incubated for 24 hrs by MTT assay; format: functional, cell-based; conditions: Calu-6, 24 h
COLO 205 = test: Antiproliferative activity against human COLO 205 cells assessed as reduction in cell proliferation incubated for 24 hrs byMTS assay; format: functional, cell-based; conditions: COLO 205, 24 h
HT-29 [9] = test: Antiproliferative activity against human HT-29 cells assessed as reduction in cell growth incubated for 24 hrs by MTT assay; format: functional, cell-based; conditions: HT-29, 24 h
HeLa = test: Cytotoxicity against human HeLa cells assessed as reduction in cell viability incubated for 72 hrs by MTT assay; format: functional, cell-based
SMMC-7721 [10] = test: Cytotoxicity against human SMMC-7721 cells assessed as reduction in cell viability incubated for 72 hrs by MTT assay; format: functional, cell-based; conditions: SMMC-7721, 72 h
[11] = Cytotoxicity against human QSG7701 cells assessed as inhibition of cell growth incubated for 72 hrs by MTT assay; format: functional, cell-based; conditions: QSG7701, 72 h
MDA-MB-231 = test: Cytotoxicity against human MDA-MB-231 cells assessed as reduction in cell viability incubated for 72 hrs by MTT assay; format: functional, cell-based; conditions: MDA-MB-231, 72 h
[12] = molecular target: Mitogen-activated protein kinase 1 (Homo sapiens, UniProt P28482); test: Inhibition of ERK2 phosphorylation in human A375 cells
Chain of Mitogen-activated protein kinase 1 (P28482 whole entry): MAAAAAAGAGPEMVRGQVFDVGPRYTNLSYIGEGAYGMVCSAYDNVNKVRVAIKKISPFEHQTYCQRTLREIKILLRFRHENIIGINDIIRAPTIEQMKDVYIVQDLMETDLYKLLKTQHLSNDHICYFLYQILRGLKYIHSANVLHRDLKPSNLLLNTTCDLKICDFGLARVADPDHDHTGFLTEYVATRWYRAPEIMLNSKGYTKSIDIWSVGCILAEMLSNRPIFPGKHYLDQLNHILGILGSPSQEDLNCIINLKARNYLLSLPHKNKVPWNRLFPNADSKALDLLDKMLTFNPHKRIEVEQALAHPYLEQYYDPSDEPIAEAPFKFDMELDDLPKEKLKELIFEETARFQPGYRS

MCF7 = test: Cytotoxicity against human MCF7 cells assessed as reduction in cell viability incubated for 24 hrs by MTT assay; format: functional, cell-based; conditions: MCF7, 24 h
B16 = test: Cytotoxicity against mouse B16 cells assessed as reduction in cell viability incubated for 24 hrs by MTT assay; format: functional, cell-based; conditions: B16, 24 h
HT-29 [13] = test: Cytotoxicity against human HT-29 cells assessed as reduction in cell viability incubated for 24 hrs in dark by MTT assay; format: functional, cell-based; conditions: HT-29, 24 h
[14] = Inhibition of ERK phosphorylation in human A-431 cells at 1 to 10 uM incubated for 24 hrs by Western blot analysis; format: cell-based; conditions: A-431, 24 h

CCOc1ccc2c(c1)c1c(n2CCN2CCNCC2)-c2cc(C(C)C)ccc2[C@@]2(C)CCC[C@@](C)(C(=O)OC)C12 (stereo not given in full)
IC50 [1]: 12500 nM
IC50 (Hep 3B2): 730 nM
IC50 (SMMC-7721 [2]): 1390 nM

Cc1cc(I)ccc1Nc1c(C(=O)NOCCO)cc2ocnc2c1F
bioavailability [3]: 28%
AUCt [4]: 337 ng·h/mL

CCc1c(Cc2ccc(F)cc2)c(=O)oc2cc(OC(=O)N(C)C)ccc12
CC50 (RD): 72900 nM
EC50 (Enterovirus A71 [5]): 19400 nM
CC50 (HEK293): 65300 nM
EC50 (Enterovirus A71 [6]): 10000 nM
Ratio CC50/EC50 [7]: 3.37
Ratio CC50/EC50 [8]: 7.29

O=C(NOCCO)c1cc2ocnc2c(F)c1Nc1ccc(F)cc1F
IC50 (A-375): 4.3 nM
IC50 (A-431): > 3000 nM
IC50 (Calu-6): 169 nM
IC50 (COLO 205): 5.7 nM
IC50 (HT-29 [9]): 2.9 nM

CC(=O)NNC(=O)[C@]12CC[C@@H](C)[C@H](C)C1C1=CCC3[C@@]4(C)Cc5cc6cc(Cl)ccc6cc5C(C)(C)C4CC[C@@]3(C)[C@]1(C)CC2 (stereo not given in full)
IC50 (HeLa): 80 nM
IC50 (SMMC-7721 [10]): 340 nM
IC50 [11]: 10800 nM
IC50 (MDA-MB-231): 120 nM

CC(=O)COC[C@H](O)CONC(=O)c1ccc(F)c(F)c1Nc1ccc(F)cc1F
IC50 [12]: 18 nM

N#Cc1c(-c2ccccc2Br)c(N2CCOCC2)n(-c2ccc(Cl)cc2Cl)c1N
IC50 (MCF7): 1350 nM
IC50 (B16): 4610 nM
IC50 (HT-29 [13]): 1470 nM

Cn1c(=O)c(F)c(Nc2ccc(I)cc2F)c2c(=O)n(C[C@@H](O)CO)cnc21 [TAK-733]
EC50 [14]: 0.19 nM
